Read-outs that look alike come from different tables or passages of the source.
Experiments:
[1] = target: T1, neurokinin-1 (NK-1) receptor (Homo sapiens, UniProt P25103); test: NK-1 Binding assay ([125I] Substance P competition, U373 cell membranes); details: Table 1; U373 membranes, [125I] Substance P displacement; read-out: NK-1 IC50
T1 construct: a human glioblastoma-astrocytoma cell line that endogenously expresses the neurokinin-1 (NK-1) receptor; endogenous in cells; host or cells: U373 human glioblastoma-astrocytoma cells (membranes)
T1 sequence (P25103 whole entry): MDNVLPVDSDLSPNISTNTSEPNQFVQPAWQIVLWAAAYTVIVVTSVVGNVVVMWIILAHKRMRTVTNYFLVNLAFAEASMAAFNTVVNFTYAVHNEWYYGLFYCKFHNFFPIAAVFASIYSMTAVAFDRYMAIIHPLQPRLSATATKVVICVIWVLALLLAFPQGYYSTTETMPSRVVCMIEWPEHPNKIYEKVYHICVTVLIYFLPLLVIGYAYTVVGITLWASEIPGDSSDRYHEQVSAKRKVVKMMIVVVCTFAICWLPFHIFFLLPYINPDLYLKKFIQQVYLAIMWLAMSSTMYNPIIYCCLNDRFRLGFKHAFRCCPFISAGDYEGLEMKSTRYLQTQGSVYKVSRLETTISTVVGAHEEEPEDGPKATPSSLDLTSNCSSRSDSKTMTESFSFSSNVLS
Method: NK-1 Binding assay. U373 cells, a human glioblastoma-astrocytoma cell line that endogenously expresses the neurokinin-1 (NK-1) receptor, were grown in a monolayer culture at 37° C. in 5% CO2 and fed with Minimum Essential Medium (MEM) supplemented with 10% fetal bovine serum. Membranes were prepared as follows: Cells were washed twice with ice-cold phosphate-buffered saline (pH 7.4) and then incubated for 5-10 minutes with ice-cold 10 mM Tris buffer (pH 7.4) containing 5 mM EDTA. Cells were removed from plates, homogenized, and centrifuged at 32,000×g for 20 minutes. The resulting supernatant was discarded, and the pellet resuspended by homogenization in 50 mM Tris buffer (pH 7.4) containing 1 mM EDTA and centrifuged at 32,000×g for 20 minutes. The resulting supernatant was discarded, and the pellet resuspended by homogenization in NK-1 binding assay buffer (50 mM Tris-HCL (pH 7.4), 3 mM MnCl2, 200 μg/ml BSA, 5 μg/ml chymostatin, 40 μg/ml bacitracin and 4 μg/ml leupeptin).
On the day of an experiment the membrane preparation was thawed, homogenized and diluted with NK-1 binding assay buffer to the appropriate concentration. […] Substance P, at a concentration of […], and concentrations of drugs ranging from 10000 to 0.01 nM. Samples were incubated for 30 min at 20° C. then filtered through GF/B glass fiber filters (pretreated with 1% polyethyleneimine and 0.3% Triton X-100) using a Brandel cell harvester. The filters were then washed with 10 ml ice cold 50 mM Tris-HCL (pH 7.4) containing 3 mM MgCl2. […] The amount of radioligand bound in the presence and absence of competitor was analyzed by plotting (-)log drug concentration versus the amount of radioligand specifically bound. The midpoint of the displacement curve (IC50, nM), signifies the potency.

[2] = target: T2, human serotonin transporters (Homo sapiens, UniProt P31645); test: Serotonin transporter binding assay ([3H]-citalopram competition, HEK-hSERT cell membranes)
T2 construct: expressed in transfected cells
T2 sequence (P31645 whole entry): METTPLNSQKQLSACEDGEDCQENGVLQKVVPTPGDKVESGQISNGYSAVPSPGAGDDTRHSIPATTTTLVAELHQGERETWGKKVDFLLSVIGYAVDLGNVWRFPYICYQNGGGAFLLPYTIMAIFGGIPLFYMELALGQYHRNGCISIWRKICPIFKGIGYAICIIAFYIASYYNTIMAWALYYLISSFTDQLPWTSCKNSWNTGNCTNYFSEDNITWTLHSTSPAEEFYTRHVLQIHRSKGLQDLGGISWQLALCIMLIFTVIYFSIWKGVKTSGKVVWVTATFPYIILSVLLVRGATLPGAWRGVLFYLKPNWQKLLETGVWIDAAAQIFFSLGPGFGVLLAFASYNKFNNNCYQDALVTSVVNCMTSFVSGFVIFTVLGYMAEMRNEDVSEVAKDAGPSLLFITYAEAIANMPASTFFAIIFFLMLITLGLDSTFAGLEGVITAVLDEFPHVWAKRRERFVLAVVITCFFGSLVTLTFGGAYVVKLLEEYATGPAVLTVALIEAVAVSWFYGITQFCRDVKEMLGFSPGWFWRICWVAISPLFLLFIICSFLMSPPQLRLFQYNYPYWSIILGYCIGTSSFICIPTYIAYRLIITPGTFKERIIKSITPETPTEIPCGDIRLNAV
Method: Serotonin transporter binding assay. HEK-293 cells that stably express human serotonin transporters (HEK-hSERT cells) were grown at 37° C. in 5% CO2 as a monolayer in medium consisting of EMEM supplemented with 10% fetal bovine serum and G418 sulfate (500 μg/ml). To prepare membranes for radioligand binding experiments, cells were rinsed twice with phosphate-buffered saline (138 mM NaCl, 4.1 mM KCl, 5.1 mM Na2PO4, 1.5 mM KH2PO4, 11.1 mM glucose, pH 7.4). Cells were transferred from plates to polypropylene tubes (16×100 mm), centrifuged at 1,200×g for 5 min and were frozen at −80° C. until assay. Following centrifugation, pellets were resuspended by homogenization in buffer consisting of 50 mM Tris (pH 7.7 at 25° C.), 120 mM NaCl and 5 mM KCl and then centrifuged at 32,000×g for 10 min. Following centrifugation, supernatants were discarded and pellets were resuspended in buffer consisting of 50 mM Tris (pH 7.4 at 25° C.), 150 mM NaCl and 5 mM KCl. Membrane homogenates (200 μl/plate) were incubated with 1 nM [^3H]-citalopram (specific activity=85 Ci/mmol) and increasing concentrations of test compounds for 1 hr at 25° C. in a total volume of 250 μl. The assay buffer consisted of 50 mM Tris (pH 7.4 at 25° C.), 120 mM NaCl and 5 mM KCl (pH 7.4 with conc. HCl). Plates were incubated for 1 hr at 25° C., then filtered through 0.5% PEI treated Whatman GF/B filters using a Brandel cell harvester. Filters were washed three times with 3 ml of ice-cold tris wash buffer. Non-specific binding was defined with 10 μM fluoxetine. Amount of radioligand bound in the presence and absence of competitor was analyzed by plotting (-)log drug concentration versus the amount of radioligand specifically bound. The midpoint of the displacement curve (IC50, nM), signifies the potency. Ki values can be calculated using the method of Cheng and Prusoff (Cheng and Prusoff, BiochemicalPharmacology, Vol 22, pp. 3099-3108, Pergamon Press (1973)).

[3] = Table 1, HEK-hSERT membranes, [3H]-citalopram displacement, read-out: SERT IC50

| SMILES | IC50 [1] [nM] | IC50 [2, 3] [nM] | IC50 [2] [nM] |
| --- | --- | --- | --- |
| COc1ncc(-c2cc(COCC3(c4ccccc4)CCNCC3)cc(C(F)(F)F)c2)cn1 | 0.01 to 100 | 0.01 to 100 |  |
| FC(F)(F)c1cc(COCC2(c3ccccc3)CCNCC2)cc(-c2ccc(N3CCOCC3)nc2)c1 | > 300 | 0.01 to 100 |  |
| CN1CCN(c2cc(-c3cc(COCC4(c5ccccc5)CCNCC4)cc(C(F)(F)F)c3)ccn2)CC1 | > 300 | 100 to 300 |  |
| Fc1cc(-c2cc(COCC3(c4ccccc4)CCNCC3)cc(C(F)(F)F)c2)c(Cl)cn1 | 0.01 to 100 | 0.01 to 100 |  |
| COc1cc(-c2cc(COCC3(c4ccccc4)CCNCC3)cc(C(F)(F)F)c2)c(F)cn1 | 100 to 300 | 0.01 to 100 |  |
| COc1cc(-c2cc(COCC3(c4ccccc4)CCNCC3)cc(C(F)(F)F)c2)c(Cl)cn1 | > 300 | 0.01 to 100 |  |
| FC(F)(F)c1cc(COCC2(c3ccccc3)CCNCC2)cc(-c2ccccc2C(F)(F)F)c1 | > 300 | 100 to 300 |  |
| COc1cc(-c2cc(COCC3(c4ccccc4)CCNCC3)cc(C(F)(F)F)c2)ccn1 | 0.01 to 100 | 0.01 to 100 |  |
| FC(F)(F)c1cc(COCC2(c3ccccc3)CCNCC2)cc(-c2cnc3ccccc3c2)c1 | 100 to 300 | 0.01 to 100 |  |
| COc1ncc(-c2cc(COCC3(c4ccccc4)CCNCC3)cc(C(F)(F)F)c2)c(OC)n1 | 100 to 300 | 0.01 to 100 |  |
| Nc1ccc(-c2cc(COCC3(c4ccccc4)CCNCC3)cc(C(F)(F)F)c2)cn1 | 0.01 to 100 | 0.01 to 100 |  |
| FC(F)(F)c1cc(COCC2(c3ccccc3)CCNCC2)cc(-c2ccc3cnccc3c2)c1 | 100 to 300 | 0.01 to 100 |  |
| FC(F)(F)c1cc(COCC2(c3ccccc3)CCNCC2)cc(-c2ccc(Cl)nc2)c1 | 0.01 to 100 | 0.01 to 100 |  |
| FC(F)(F)c1cc(COCC2(c3ccccc3)CCNCC2)cc(-c2cccnc2Cl)c1 | 0.01 to 100 | 0.01 to 100 |  |
| Fc1ncccc1-c1cc(COCC2(c3ccccc3)CCNCC2)cc(C(F)(F)F)c1 | 0.01 to 100 | 0.01 to 100 |  |
| FC(F)(F)c1cc(COCC2(c3ccccc3)CCNCC2)cc(-c2ccc(Cl)nc2Cl)c1 | 0.01 to 100 | 0.01 to 100 |  |
| Cc1ccncc1-c1cc(COCC2(c3ccccc3)CCNCC2)cc(C(F)(F)F)c1 | > 300 | 0.01 to 100 |  |
| O=[N+]([O-])c1cccc(-c2cc(COCC3(c4ccccc4)CCNCC3)cc(C(F)(F)F)c2)c1 | 0.01 to 100 | 0.01 to 100 |  |
| Nc1cccc(-c2cc(COCC3(c4ccccc4)CCNCC3)cc(C(F)(F)F)c2)c1 | 0.01 to 100 | 0.01 to 100 |  |
| FC(F)(F)c1cc(COCC2(c3ccccc3)CCNCC2)cc(-c2ccc(Cl)cc2Cl)c1 | 0.01 to 100 | 0.01 to 100 |  |
| FC(F)(F)c1cc(COCC2(c3ccccc3)CCNCC2)cc(-c2cccc3ccccc23)c1 | > 300 | 100 to 300 |  |
| Fc1ccc(-c2cc(COCC3(c4ccccc4)CCNCC3)cc(C(F)(F)F)c2)cc1 | 0.01 to 100 | 0.01 to 100 |  |
| FC(F)(F)c1cc(COCC2(c3ccccc3)CCNCC2)cc(-c2ccc(Cl)cc2)c1 | 0.01 to 100 | 0.01 to 100 |  |

| SMILES | IC50 [1] [nM] | IC50 [2, 3] [nM] | IC50 [2] [nM] |
| --- | --- | --- | --- |
| Cc1ccc(-c2cc(COCC3(c4ccccc4)CCNCC3)cc(C(F)(F)F)c2)cc1 | 0.01 to 100 | 0.01 to 100 |  |
| COc1ccc(-c2cc(COCC3(c4ccccc4)CCNCC3)cc(C(F)(F)F)c2)cc1 | 0.01 to 100 | 0.01 to 100 |  |
| Cc1cccc(-c2cc(COCC3(c4ccccc4)CCNCC3)cc(C(F)(F)F)c2)c1 | 0.01 to 100 | 0.01 to 100 |  |
| Fc1ccc(-c2cc(COCC3(c4ccccc4)CCNCC3)cc(C(F)(F)F)c2)cc1Cl | 0.01 to 100 | 0.01 to 100 |  |
| FC(F)(F)c1cc(COCC2(c3ccccc3)CCNCC2)cc(-c2cc(C(F)(F)F)cc(C(F)(F)F)c2)c1 | 100 to 300 | 100 to 300 |  |
| FC(F)(F)c1cc(COCC2(c3ccccc3)CCNCC2)cc(-c2c(Cl)cccc2Cl)c1 | 100 to 300 | 0.01 to 100 |  |
| FC(F)(F)c1cc(COCC2(c3ccccc3)CCNCC2)cc(-c2cccc3c2Sc2ccccc2S3)c1 | > 300 | > 300 |  |
| FC(F)(F)c1cc(COCC2(c3ccccc3)CCNCC2)cc(-c2ccc(-c3ccccc3)cc2)c1 | 100 to 300 | 0.01 to 100 |  |
| CSc1ccc(-c2cc(COCC3(c4ccccc4)CCNCC3)cc(C(F)(F)F)c2)cc1 | 0.01 to 100 | 0.01 to 100 |  |
| Cn1nnnc1-c1cc(COCC2(c3ccccc3)CCNCC2)cc(C(F)(F)F)c1 | 0.01 to 100 | 0.01 to 100 |  |
| Cc1nnnn1-c1cc(COCC2(c3ccccc3)CCNCC2)cc(C(F)(F)F)c1 | 100 to 300 | 0.01 to 100 |  |
| COc1ccc(-n2nnnc2C)cc1COCC1(c2ccccc2)CCNCC1 | 0.01 to 100 | 0.01 to 100 |  |
| COc1ccc(-c2ccncc2)cc1COCC1(c2ccccc2)CCNCC1 | > 300 | 0.01 to 100 |  |
| COc1ccc(-c2ccc(C#N)nc2)cc1COCC1(c2ccccc2)CCNCC1 | 100 to 300 | 0.01 to 100 |  |
| COc1ccc(-c2ccc(C#N)cc2)cc1COCC1(c2ccccc2)CCNCC1 | 0.01 to 100 | 0.01 to 100 |  |
| N#Cc1ccc(-c2cc(COCC3(c4ccc(F)cc4)CCNCC3)cc(C(F)(F)F)c2)cc1 | 0.01 to 100 | 0.01 to 100 |  |
| CN1CCC(COCc2cc(-c3ccc(C#N)cc3)cc(C(F)(F)F)c2)(c2ccccc2)CC1 | 0.01 to 100 |  | 0.01 to 100 |
| CN1CCC(COCc2cc(-c3ccncc3)cc(C(F)(F)F)c2)(c2ccccc2)CC1 | 0.01 to 100 |  | 0.01 to 100 |
| CN1CCC(COCc2cc(-c3ccc(C#N)cc3)cc(C(F)(F)F)c2)(c2ccc(F)cc2)CC1 | 0.01 to 100 |  | 0.01 to 100 |
| CC(OCC1(c2ccccc2)CCNCC1)c1cc(-c2ccc(C#N)cc2)cc(C(F)(F)F)c1 (centres unmarked) | 0.01 to 100 | 0.01 to 100 |  |
| CC(OCC1(c2ccccc2)CCN(C)CC1)c1cc(-c2ccc(C#N)cc2)cc(C(F)(F)F)c1 (centres unmarked) | 0.01 to 100 |  | 0.01 to 100 |
| C[C@@H](OCC1(c2ccccc2)CCNCC1)c1cc(-c2ccc(C#N)cc2)cc(C(F)(F)F)c1 | 0.01 to 100 | 0.01 to 100 |  |
| N#Cc1ccc(-c2cc(Br)cc(COCC3(c4ccccc4)CCNCC3)c2)cc1 | 0.01 to 100 | 0.01 to 100 |  |

From patent US20070249607A1, “NK-1 AND SEROTONIN TRANSPORTER INHIBITORS” (Bristol-Myers Squibb Company, priority 2006, published 2007)
